Results: patent publication US10842794B2, “Use of Sigma-1 receptor agonist compounds” (MTA TÁMOGATOTT KUTATÓCSOPORTOK IRODÁJA, priority 2014, dated 2020)

Tests used:
[1] = tested on: NRK49F cells; experiment: Cell viability MTT assay in myofibroblasts; format: cell-based, rat; settings: 24-hours treatment, commonly used doses 1-10 μM
[2] = tested on: NRK49F rat kidney interstitial fibroblast cell lines; experiment: PDGFB-induced myofibroblast proliferation (MTT); format: cell-based; settings: 10 ng/mL PDGFB, 24 hours, different concentrations of agonist
[3] = tested on: collagen I and collagen III mRNA in NRK49F cells; experiment: TGFβ-induced collagen-1 and collagen-3 production, quantitative RT-PCR; format: cell-based, rat; settings: 20 μM/L fluvoxamine
[4] = tested on: Streptozotocin induced type 1 diabetic rats; experiment: Rat model of streptozotocin induced diabetic nephropathy: metabolic and renal parameters; format: in vivo; settings: for Blood Creatinine / Blood Glucose / Blood Urea Nitrogen / FeNa / Fructosamine / GFR / Urinary albumin excretion: Mean±SEM
Procedure: All substances were purchased from Sigma-Aldrich Ltd. (Budapest, Hungary). Diabetes was induced in male Wistar rats by 65 mg/bwkg streptozotocin (STZ) i.v. (dissolved in 0.1 M citrate buffer; pH 4.5). Animals were considered diabetic if blood glucose concentrations increased to 15 mmol/L within 72 h after STZ injection and remained elevated. Animals were randomly divided into groups (n=10-12/group) and received by per os (i) fluvoxamine (20 mg/bwkg/day) for 7 weeks; (ii) fluvoxamine (20 mg/bwkg/day) for 2 weeks from the 5th week of diabetes, (iii) fluvoxamine (2 mg/bwkg/day) for 2 weeks from the 5th week of diabetes; or (iv) vehicle (isotonic saline). […] Non-diabetic age-matched control animals were injected with citrate buffer and sacrificed after 7 weeks (n=8-10/group).
Before and during and at the end of treatment period rats were placed into metabolic cages to collect 24-hour urinary samples. After 2 weeks of treatment all rats were anesthesized, blood and urinary samples were collected and the kidneys were removed, weighed and a section fixed in formalin (4%, pH=7.4) for histology and the remained immediately snap-frozen for further investigations.
Serum metabolic (glucose, fructoseamine, total and HDL-cholesterol, triglycerides) and renal functional parameters from rat serum (sodium, potassium, creatinine, BUN, GFR and proteinuria) were determined with commercially available kits on a Hitachi 912 photometric chemistry analyzer. Random urine and 24-hour urine samples were also measured. Urinary protein to creatinine ratio was also calculated.

[5] = tested on: Streptozotocin induced type 1 diabetic rats; experiment: Diabetic rat kidney: Masson's trichrome staining, tubulointerstitial fibrosis; format: in vivo
[6] = tested on: Streptozotocin induced type 1 diabetic rats; experiment: Diabetic rat kidney: fibronectin staining; format: in vivo; settings: fluvoxamine 20 mg/bwkg/day for 2 weeks from the 5th week of diabetes
[7] = tested on: Streptozotocin induced type 1 diabetic rats; experiment: Diabetic rat kidney: αSMA protein level, western blot; format: in vivo; settings: fluvoxamine, predominantly the dose of 20 mg
[8] = tested on: mice with unilateral ureter obstruction (UUO); experiment: Mice model of unilateral ureteral obstruction (UUO): Masson's trichrome, tubulointerstitial fibrosis; format: in vivo; settings: fluvoxamine 20 mg/bwkg/day for one week, 7 days after UUO
[9] = tested on: mice with unilateral ureter obstruction (UUO); experiment: Mice model of UUO: αSMA protein in kidney, western blot; format: in vivo; settings: one week fluvoxamine treatment 20 mg/bwkg/day
[10] = tested on: rat model of bleomycin-induced lung fibrosis; experiment: Rat model of bleomycin induced pulmonary fibrosis: Masson trichrome staining of lung; format: in vivo; settings: fluvoxamine 20 mg/bwkg/day per os
Procedure: Masson trichrome staining of tissue sections was performed Bars represent Mean±SEM, n=6/group). Specifically:
For the induction of pulmonary fibrosis male Wistar rats were anesthetized. Bleomycin (5 mg/bwkg in a 300 μl solution of isotonic saline) or 300 μl isotonic saline was administered into the trachea using a 30G needle.
Animals were randomly divided into 4 groups of 6 rats each as follows (i)—control group was sham operated, received isotonic saline per os daily for 3 weeks, (ii) vehicle treated group: received isotonic saline per os daily for 3 weeks after the induction of lung fibrosis, (iii) fluvoxamine treated group: received fluvoxamine (20 mg/bwkg/day per os for 3 weeks after the induction of lung fibrosis), (iv) fluvoxamine+NE100 treated group: received fluvoxamine (20 mg/bwkg/day; per os) and 1 mg/bwkg/day NE100 (i.p. for 3 weeks after the induction of lung fibrosis. […]
The stained sections were viewed and photographed with Pannoramic 250 Flash and Pannoramic Viewer 1.15.2 (3D HISTECH Ltd. Budapest, Hungary) Adobe Photoshop 13.0 and Scion Image for Windows software were used for the analysis. […] Finally these ratios were statistically analyzed in all of the treatment groups.

[11] = tested on: FN1, COL1A1 and MMP2 mRNA in HTM-5 cells; experiment: Fibrotic marker mRNA expression in HTM-5 cells (RT-PCR); format: cell-based, human; settings: normalised to RN18S
[12] = tested on: human trabecular meshwork-5 (HTM-5) cells; experiment: Actin cytoskeleton rearrangement in HTM-5 cells (phalloidin F-actin staining); format: cell-based; settings: 24 h, 20 ng/mL PDGF and 10 μM FLU
[13] = tested on: NRK49F myofibroblasts; settings: all applied concentrations, even the smallest 1 μM
Procedure: In 6-well plates of NRK49F myofibroblasts (6×10^6 cells/well) TGF-β (1 nM) induced production of fibrillar components of the extracellular matrix was measured by Sirius Red staining. To investigate the effect of S1R agonist compounds a group of cells was treated for 48 hours with the various S1R agonists. Solvent treated cells served as controls. (Bars represent mean±SEM)
To investigate the deposition of fibrillar collagen Sirius Red staining was performed. 48 hours after the treatment with TGF-β and said compounds the NRK-49F cells were incubated for 10 minutes with Kahle fixative solution. 0.1% Sirius Red (Direct Red 80, Sigma-Aldrich) in 1.2% picric acid was added for each well and plates were incubated for 30 minutes at RT. The unconnected dye molecules were washed with distilled water. The bound Sirius Red dye was eluated with 0.1 M NaOH solution, absorbance was recorded at 540 nm in a Hidex Chameleon Microplate Reader (Triathler, Plate Chameleion, 300SL Lablogic Systems, Inc., Brandon, Fla., USA) used MikroWin program. Vehicle treated cells served as controls.

[14] = D7FLU: diabetic rats, fluvoxamine 20 mg/bwkg/day per os for 7 weeks
[15] = D+FLU2: diabetic rats, fluvoxamine 2 mg/bwkg/day per os for 2 weeks from the 5th week of diabetes
[16] = D+FLU: diabetic rats, fluvoxamine 20 mg/bwkg/day per os for 2 weeks from the 5th week of diabetes

Structure (SMILES): COCCCC/C(=N\OCCN)c1ccc(C(F)(F)F)cc1 [fluvoxamine, 2-{[(E)-{5-Methoxy-1-[4-(trifluoromethyl)phenyl]pentylidene}amino]oxy}ethanamine]
- cytotoxicity / cell viability in myofibroblasts [1]: not cytotoxic
- PDGF-induced myofibroblast proliferation [2]: significantly decreased PDGF-induced myofibroblast proliferation
- mRNA expression of collagen-1 and collagen-3 ([3]; by 24 hours): remarkably diminished
- collagen production (collagen-1 and collagen-3 mRNA) ([3]; by 48 hours): returned to the level of normal controls
- Blood Creatinine [4, 14]: 27.0 ± 2.24 µmol/L
- Blood Glucose [4, 14]: 50.31 ± 3.7 ^ mmol/L
- Blood Urea Nitrogen [4, 14]: 17.3 ± 1.49 mmol/L
- FeNa [4, 14]: 0.40 ± 0.03 %
- Fructosamine [4, 14]: 276 ± 11.2 µmol/L
- GFR [4, 14]: 6.77 ± 1.15 mL/min/100 g
- Urinary albumin excretion [4, 14]: 20.8 ± 9.51 mg/mL
- Blood Creatinine [4, 15]: 31.8 ± 2.94 µmol/L
- Blood Glucose [4, 15]: 26.45 ± 3.11 mmol/L
- Blood Urea Nitrogen [4, 15]: 18.8 ± 1.68 mmol/L
- FeNa [4, 15]: 0.62 ± 0.12 %
- Fructosamine [4, 15]: 242 ± 12.8^ μmol/L
- GFR [4, 15]: 4.73 ± 0.69^ mL/min/100 g
- Urinary albumin excretion [4, 15]: 24.3 ± 5.77^ mg/mL
- Blood Creatinine [4, 16]: 34.5 ± 2.74 µmol/L
- Blood Glucose [4, 16]: 36.6 ± 2.62 mmol/L
- Blood Urea Nitrogen [4, 16]: 17.3 ± 2.30 mmol/L
- FeNa [4, 16]: 0.90 ± 0.23 %
- Fructosamine [4, 16]: 252 ± 18.5^ μmol/L
- GFR [4, 16]: 3.73 ± 0.49^ mL/min/100 g
- Urinary albumin excretion [4, 16]: 21.5 ± 4.99 mg/mL
- renal function in diabetic rats ([4]; fluvoxamine treatment, specifically the long-term (7-weeks) treatment): remarkably improved renal function, prevented GFR decline
- diabetes induced tubulointerstitial fibrosis (Masson's trichrome) ([5]; fluvoxamine 20 mg 7 weeks, 20 mg 2 weeks, 2 mg 2 weeks per os): ameliorated the diabetes induced tubulointerstitial fibrosis
- renal structure (Masson's trichrome) ([5]; long-term (7-weeks) fluvoxamine 20 mg/bwkg/day): restored almost the normal renal structure
- fibrotic lesion (fibronectin staining) versus diabetic rats [6]: smaller
- αSMA protein level in kidney of diabetic rats [7]: reduced αSMA protein level by the half
- tubulointerstitial fibrosis after UUO (Masson's trichrome) [8]: decreased tubulointerstitial fibrosis
- UUO-induced αSMA production in kidney [9]: successfully decreased UUO-induced αSMA production
- fibrotic lesions of the lung after bleomycin (Masson trichrome) [10]: prevented almost totally the fibrotic effect of bleomycin
- COL1A1 (collagen1a1) mRNA expression ([11]; 20 ng/ml PDGF plus 5 μM FLU): inhibit the expression of each fibrosis marker tested in a dose dependent manner
- FN1 (fibronectin) mRNA expression ([11]; 20 ng/ml PDGF plus 5 μM FLU): inhibit the expression of each fibrosis marker tested in a dose dependent manner
- MMP2 (matrix metalloproteinase 2) mRNA expression ([11]; 20 ng/ml PDGF plus 10 μM FLU): inhibit the expression of each fibrosis marker tested in a dose dependent manner
- fibrotic rearrangement and active production of actin filaments [12]: blocked
- TGFβ-induced ECM production (Sirius Red) [13]: significantly inhibited TGFβ-induced ECM production
